# Test results from paper PMC5947712, “High‐Throughput Kinetic Analysis for Target‐Directed Covalent Ligand Discovery” (Angewandte Chemie (International Ed. in English), 2018).
# Tests used:
# [1] = biological target: T1, Cdk2(C177A) (Homo sapiens, UniProt P24941, C177A); experiment: Intact protein mass spectrometry of labelling, Cdk2(C177A); format: binding
# T1 construct: made in house; host or cells: E. coli Tuner(DE3)
# Description: (§1) Hs!Cyclin!A2!F!5’![…]!
# (§2) Hs!Cyclin!A2!R!5’![…]!
# (§3) Sc!CAK1!R!5’!GAATTCttatgggcttttctaattcttgcaag!
# GSTBCdk2" and" GSTBcyclin" A2:! Harvested! cells! were! resuspended! in! 50! mM! HEPES! buffer! (pH7.5)! containing! 150! mM! NaCl,!
# 10!mM!MgCl2,!2!mM!dithiothreitol!(DTT),!0.5!mg!mLR1!lysozyme,!and!0.01%!Triton!XR100!at!4!˚C!and!incubated!for!30!minutes.!
# After! sonication! and! centrifugation! (40! min,! 16000! g),! the! supernatant! was! incubated! for! 1! h! with! glutathioneRSepharose!
# beads,! washed! with! lysis! buffer! and! the! desired! protein! eluted! with! 10! mM! GSH! (100! mM! Tris,! pH! 8).! After! incubation! the! deR
# sired! protein! was! cleaved! from! the! GST! tag! with! PreScission! protease! (100:1)! at! 4 °C! for! 4! hours,! the! cleaved! GST! tag! was!
# removed! with! glutathioneRSepharose! beads.! Cdk2! was! concentrated! and! then! loaded! onto! a! Superdex! 75! (16/60)! column,!
# eluting! with! 100! mM! phosphate! buffer! containing! 50! mM! DTT.! Purified! Cdk2! was! concentrated! to! 10! mg! mLR1!and! stored! at!–
# 80! ˚C.! Cyclin! A2! was! purified! by! glutathioneRSepharose! affinity! as! described! above! with! the! following! amendments:! 100! mM!
# MgCl2!was! added! after! GST! cleavage! to! minimise! protein! aggregation! and! gel! filtration! was! performed! with! 50! mM! […]
# (§4) labelling! reached! completion! (as! monitored! by! fluorescence! quench! assay! and/or! intact! protein! mass! spectrometry).! […]
# [2] = biological target: Cdk2(WT) (Homo sapiens, UniProt P24941); experiment: Intact protein mass spectrometry of labelling, Cdk2(WT); format: binding; set-up: made in house; host or cells: E. coli Tuner(DE3)
# Description: Supplementary, Figure, S6!|!Acrylamide, 1,selectivity, profile.!Exponential! regressions! from!kinetic! analysis! of! acrylamide!1!
# (0.5!mM)!in!reaction!with!various!thiols!(5!µM).!
# Supplementary, Figure, S7!|!Cdk2(WT),is, mono%modified, by, acrylamide, 1.!(a)!Cdk2(WT)! was! phosphorylated! with! CAK1.!
# pCdk2(WT)! (5! µM)! was! then! incubated! with! acrylamide!1!(0.5! mM)! in! 100! mM! phosphate! buffer!(pH! 8.0)! at! 4! ˚C! for! 18! hours.!
# IntactRprotein! mass! spectra! show! complete! phosphorylation! (ΔMW! =! 80! Da)! and! complete! acrylamide! labeling! (ΔMW! =!
# 288!Da).!(b)!Cdk2(WT)! (5! µM)! was! incubated! with! acrylamide!1!(0.5! mM)! in! 100! mM! phosphate! buffer! (pH! 8.0)!in! the!presR
# ence! or! absence! of! GSH! (1! mM)! at! room! temperature.!The! degree! of! labelling! was! monitored! by!intactRprotein! mass!specR
# trometry!after!6.25!and!24!h.!The!presence!of!1!mM!GSH!was!found!to!slow!the!rate!of!Cdk2!modification!by!a!factor!of!~2.! […]
# as §1, §2, §3
# GSTBCdk2" and" GSTBcyclin" A2:! Harvested! cells! were! resuspended! in! 50! mM! HEPES! buffer! (pH7.5)! containing! 150! mM! NaCl,! […]
# as §4
smiles,measurement,setting,value
C=CC(=O)N1CCN(C(=O)OC(C)(C)C)c2ccccc21 [Acrylamide 1],modification of Cdk2(C177A) by intact protein mass spectrometry,[1],unaffected
same,factor by which 1 mM GSH slows the rate of Cdk2 modification,"[2]; Cdk2(WT) 5 µM, compound 0.5 mM, pH 8.0, room temperature, monitored after 6.25 and 24 h",~ 2
same,modification of Cdk2(WT) by intact protein mass spectrometry,[2]; even in the presence of millimolar glutathione,mono‐modifies
